Assay results from paper PMC11990103, “Anticancer Activity and Safety Profile of Novel 1-(4-Fluorophenoxyacetyl)-4-substituted Thio/Semicarbazide Derivatives” (Molecules, 2025).

Assays:
Format in all cases: cell-based, human
G-361 melanoma cells = experiment: Cell cycle analysis by image cytometry (NucleoCounter NC-3000); conditions: G-361, 48 h, AB2 at concentration corresponding to IC50
Description: (§1) To further evaluate the anticancer activity of thiosemicarbazide derivative AB2 in G-361 and LNCaP cell lines, cell cycle analysis by image cytometry and detection of apoptosis using annexin V and propidium iodide was performed. Analyses of the action of AB2 on the distribution of cells in different phases of the cell cycle indicated a significant increase in the population of cells in the sub-G1 phase compared to the control cultures, in both tested prostate and melanoma cells. This population increased from 7% and 5% in control cells to 26% and 27% after exposure to AB2 in LNCaP and G-361 cells, respectively (Figure 8A). The increase in the cell population in the sub-G1 phase indicates the presence of apoptosis or necrosis in the investigated cells and not a significant inhibition of cell proliferation, i.e., a cytostatic effect.
(§2) Cell cycle analysis was assessed with the NucleoCounter NC-3000 (ChemoMetec, Allerod, Denmark) following the 2-Step Cell Cycle Assay protocol recommended by the manufacturer. The research was performed after 48 h incubation of prostate cancer cells (LNCaP) and melanoma cells (G-361) with AB2 compound in a concentration corresponding to IC50 value. Analysis was performed in line with the previously described methodology.

[1] = tested on: LNCaP prostate cancer cells; experiment: as above; conditions: 48 h, AB2 at concentration corresponding to IC50
Description: as §1, §2

A375 melanoma cell line = experiment: MTT cytotoxicity assay; conditions: 48 h treatment
Description: (§3) These cancer cell lines comprised prostate cancer (PC-3, DU-145, LNCaP), melanoma (SK-MEL28, A375, G-361), breast cancer (MCF-7, MDA-MB-231), and lung cancer (NCI-H1563). The MTT assay was carried out across a wide range of concentrations for 48 h.
(§4) The research was conducted on one primary cell line: BJ (fibroblast) and four types of cancerous ones: three prostate cancer cell lines (PC-3, DU-145, LNCaP); 3 Melanoma cell lines (MEL-28, A375, G-361); 2 breast cancer cell lines (MCF-7, MDA-MB-23) and one lung cancer cell line (NCI-H1563). All cell lines were obtained from the American Type Culture Collection (ATCC, Manassas, VA, USA) and were grown in media (Corning, New York, NY, USA) according to ATCC guidelines. The culture media was enriched with 10% heat-inactivated fetal bovine serum (Life Technologies, Carlsbad, CA, USA) and antibiotics: penicillin (100 units) and streptomycin (100 μg/mL) from Sigma-Aldrich (St. Louis, MO, USA). The cells were incubated at 37 °C with 5% CO2 in air.
(§5) The cytotoxic analysis of thiosemicarbazides (TSC) (AB1–AB6) and semicarbazides (SC) (AB7–AB12) was conducted in various concentrations. […] The cells were treated with compounds or DMSO as a vehicle in control cultures for 48h. IC50 values were determined using the AAT Bioquest IC50 calculator (AAT Bioquest, Inc., Pleasanton, CA, USA, Quest Graph™ EC50 Calculator. https://www.aatbio.com/tools/ec50-calculator) (accessed on 7 October 2024).
(§6) The cytotoxic activity of the thiosemicarbazides and semicarbazides was measured using the MTT colorimetric assay (MTT Cell Proliferation Assay Kit—Invitrogen, Waltham, MA, USA). The cells were seeded in the 96-well plates at a density of 1.5 × 10^5 cells/mL. After reaching 70–80% of confluence, the tested compounds in a wide range of concentrations were added. Plates were incubated for 48 h at 37 °C in 5% CO2 air. Then, […] tetrazolium salt (3-(4,5-dimethylthiazol-2-yl)-2,5-diphenyltetrazolium bromide)—MTT reagent (0.5 mg/mL) dissolved in PBS was added to each well for 4 h. The MTT solution was then removed from above the water-insoluble purple formazan crystals, which were then dissolved in DMSO (dimethyl sulfoxide, […]; POCH, Gliwice, Poland). The absorbance value of obtained solutions was measured using a PowerWave ™ microplate spectrophotometer (Bio-Tek Instruments, Winooski, VT, USA) at a wavelength of 570 nm. Each cytotoxicity assay was repeated three times in triplicates.

[2] = tested on: SK-MEL28 melanoma cell line; experiment: MTT cytotoxicity assay; conditions: 48 h treatment
Description: as §3, §4, §5, §6

[3] = tested on: LNCaP prostate cancer cell line; experiment: MTT cytotoxicity assay
Description: as §3, §4, §5, §6

[4] = tested on: MCF-7 breast cancer cell line; experiment: MTT cytotoxicity assay; conditions: 48 h treatment
Description: as §3, §4, §5, §6

[5] = tested on: DU-145 prostate cancer cell line; experiment: MTT cytotoxicity assay; conditions: 48 h treatment
Description: as §3, §4, §5, §6

[6] = tested on: PC-3 prostate cancer cell line; experiment: MTT cytotoxicity assay; conditions: 48 h treatment
Description: as §3, §4, §5, §6

G-361 melanoma cell line = experiment: MTT cytotoxicity assay
Description: as §3, §4, §5, §6

[7] = tested on: NCI-H1563 lung cancer cell line; experiment: MTT cytotoxicity assay; conditions: 48 h treatment
Description: as §3, §4, §5, §6

[8] = tested on: MDA-MB-231 breast cancer cell line; experiment: MTT cytotoxicity assay; conditions: 48 h treatment
Description: as §3, §4, §5, §6

BJ fibroblasts = experiment: MTT cytotoxicity assay, normal cells; conditions: 48 h treatment, read-out: IC50 BJ (fibroblast)
Description: as §3, §4, §5, §6

## O=C(COc1ccc(F)cc1)NNC(=S)Nc1ccccc1Cl [AB2]
G-361 melanoma cells
  cells in sub-G1 phase (M1): 27%
[1]
  cells in sub-G1 phase (M1): 26%
A375 melanoma cell line
  IC50: 429 µM
[2]
  IC50: 470 µM
[3]; IC50 normal cells (BJ) divided by IC50 LNCaP
  selectivity index (SI), LNCaP: 4.19
[3]; MTT, 48 h treatment
  IC50: 108 µM
[4]
  IC50: > 500 µM
[5]
  IC50: > 500 µM
[6]
  IC50: > 500 µM
G-361 melanoma cell line; IC50 normal cells (BJ) divided by IC50 G-361
  selectivity index (SI), G-361: 2.04
G-361 melanoma cell line; MTT, 48 h treatment
  IC50: 223 µM
[7]
  IC50: > 500 µM
[8]
  IC50: > 500 µM
BJ fibroblasts
  IC50: 453 µM
